Test results as given in US11512079B2, “Heterocycle substituted pyridine derivative antifungal agents” (Amplyx Pharmaceuticals, Inc., priority 2017, dated 2022).
In brackets after ≈: the same amount, converted by molar mass.

Assays:
C. neoformans H99 [1] = test: Antifungal susceptibility testing, CLSI broth microdilution (Example 496/497); format: cell-based, Cryptococcus neoformans; settings: for MIC C. neoformans H99: 50% reduction in fungal growth, 72 h, 35° C.; for MIC: Cryptococcus neoformans, H99, 72 h, read-out: MIC C. neoformans H99
Excerpt: (§1) Isolates tested. C. neoformans strains H99, DUMC 118.00, DUMC 158.03 and C. gattii strains R272, and RSA-MW-3515 were obtained from Duke University. C. albicans 90028, A. fumigatus MYA3626, C. neoformans 14116, C. neoformans 76484 and the pathogenic Cryptococcus reference strains panel (ATCC MP-11) were obtained from American Type Culture Collection (ATCC, Manassas, Va., USA). The MP-11 panel consists of strains representing eight molecular types and three subtypes of C. neoformans and C. gattii.
(§2) Antifungal susceptibility testing. To establish antimicrobial activity, broth microdilution susceptibility testing was performed according to Clinical and Laboratory Standards Institute (CLSI) guidelines M27-A3 for yeasts and M38-A2 for molds. Compound 2 and analogs were first diluted in DMSO to obtain intermediate dilutions. These were further diluted in microtiter plates to obtain a final concentration of 2 to 0.002 μg/mL. 1 μl of DMSO was added to “No drug” control wells. The solutions were mixed on a plate shaker for 10 mins and plates incubated at 35° C. for 40 to 48 h (C. albicans, A. fumigatus) and 72 h (C. neoformans). The minimum concentration that led to 50% reduction in fungal growth as compared to the control (with the aid of a reading mirror) was determined as the minimum inhibitory concentration (MIC) for C. albicans and C. neoformans. The minimum concentration that led to shortening of hyphae as compared to hyphal growth in DMSO control wells was determined as the minimum effective concentration (MEC) for A. fumigatus (as read for echinocandins). The use of the MIC and MEC endpoints for Compound 2 against yeasts and molds, respectively has been described previously.

C. gattii WM276 = test: as above; format: cell-based, Cryptococcus gattii; settings: 50% reduction in fungal growth
Excerpt: as §1, §2

C. albicans 90028 = test: as above; format: cell-based, Candida albicans; settings: for MIC or MEC C. albicans 90028: 50% reduction in growth, 40 to 48 h
Excerpt: as §1, §2

A. fumigatus MYA3626 = test: as above; format: cell-based, Aspergillus fumigatus; settings: for MIC or MEC A. fumigatus MYA3626: shortening of hyphae, 40 to 48 h
Excerpt: as §1, §2

[2] = test system: strains of C. neoformans and C. gattii; test: Activity vs Cryptococcus, summary over the strains tested; format: cell-based, Cryptococcus neoformans and Cryptococcus gattii; settings: for MIC90: panel of 18 isolates of C. neoformans and C. gattii
Excerpt: (§3) The activity of Gwt1 inhibitors against susceptible and FLC non-susceptible/resistant strains.
as §1
(§4) Antifungal susceptibility testing. To establish antimicrobial activity, broth microdilution susceptibility testing was performed according to Clinical and Laboratory Standards Institute (CLSI) guidelines M27-A3 for yeasts and M38-A2 for molds. Compound 2 and analogs were first diluted in DMSO to obtain intermediate dilutions. These were further diluted in microtiter plates to obtain a final concentration of 2 to 0.002 μg/mL. 1 μl of DMSO was added to “No drug” control wells. The solutions were mixed on a plate shaker for 10 mins and plates incubated at 35° C. for 40 to 48 h (C. albicans, A. fumigatus) and 72 h (C. neoformans). The minimum concentration that led to 50% reduction in fungal growth as compared to the control (with the aid of a reading mirror) was determined as the minimum inhibitory concentration (MIC) for C. albicans and C. neoformans.

C. neoformans H99 [3] = test: Synergy with FLC, standard microtiter checkerboard dilution; format: cell-based, Cryptococcus neoformans; settings: synergy = FICI <0.5, MIC read at 50% inhibition
Method: Gwt1 inhibitors are synergistic with FLC. […] Importantly, no antagonism was observed.
as §2

[4] = test system: Candida tropicalis strains; settings: cited from earlier work
strains of C. albicans = settings: cited from earlier work
[5] = mouse, in vivo; cited from earlier work
[6] = test system: 46 strains of C. neoformans; settings: global study; cited from earlier work
[7] = test system: C. neoformans US isolates; settings: cited from earlier work
C. neoformans isolates = test: Activity vs susceptible and FLC non-susceptible/resistant strains, broth microdilution; format: cell-based, Cryptococcus neoformans
Excerpt: as §3, §1, §4

C. gattii isolates = test: as above; format: cell-based, Cryptococcus gattii
Excerpt: as §3, §1, §4

C. neoformans strain H99 [8] = test: Delayed treatment model of cryptococcal meningitis, CD-1 mice; format: in vivo, Cryptococcus neoformans; settings: treatment from 24 h after infection, 7 days; prodrug 60 mg/kg IP QD with 100 mg/kg ABT PO; AMB 3 mg/kg IP; n=5
Method: Infection was initiated on Day 1 and treatment was initiated 24 h later (Day 2) rather than 1 h. Treatments were administered for 7 days (final dose on Day 8) and mice were sacrificed on Day 9 for CFU enumeration.
Delayed treatment model. […] Fungal burden data were log10 transformed and evaluated using Kruskal-Wallis tests with Dunn's Multiple Comparison Test for Post-hoc analysis (Prism 5; GraphPad Software, Inc., San Diego, Calif.). A P value of ≤0.05 is considered statistically significant

C. neoformans strain H99 [9] = test: Murine model of cryptococcal meningitis, Compound 1 alone and with FLC (no ABT), CD-1 mice; format: in vivo, Cryptococcus neoformans; settings: Compound 1 390 mg/kg PO thrice daily or FLC 80 mg/kg/day IP, 7 days, n=10
Method: Treatment was initiated within 1 h after infection.
Mice were weighed daily and observed for acute and chronic adverse symptoms. […] Fungal burden data were log10 transformed and evaluated using Kruskal-Wallis tests with Dunn's Multiple Comparison Test for Post-hoc analysis (Prism 5; GraphPad Software, Inc., San Diego, Calif.).

Nc1ncccc1-c1cc(Cc2ccc(COc3ccccn3)cc2)no1 [Compound 2]
MIC C. neoformans H99 (C. neoformans H99 [1]): 0.25 µg/mL (≈ 0.698 µM) | MIC C. gattii WM276 (C. gattii WM276): 0.125 µg/mL (≈ 0.349 µM) | MIC or MEC C. albicans 90028 (C. albicans 90028): 0.008 µg/mL (≈ 0.0223 µM) | MIC or MEC A. fumigatus MYA3626 (A. fumigatus MYA3626): 0.008 µg/mL (≈ 0.0223 µM) | MIC90 [2]: 0.5 µg/mL (≈ 1.4 µM) | FICI in combination with FLC (C. neoformans H99 [3]): 0.37 | strains with synergy with FLC [4]: 9 of 10 | strains with synergy with FLC (strains of C. albicans): 2 of 20 | half-life in mice [5]: 1.40 to 2.75 h

OC(Cn1cncn1)(Cn1cncn1)c1ccc(F)cc1F [FUC]
MIC90 versus 46 strains of C. neoformans [6]: 4 µg/mL

Nc1nc(=O)[nH]cc1F [5-flucytosine]
MIC90 versus C. neoformans, US isolates [7]: 8 µg/mL (≈ 62 µM)

C[C@@H]1[C@H](O)[C@@H](C)/C=C/C=C/C=C/C=C/C=C/C=C/C=C/[C@H](O[C@@H]2O[C@H](C)[C@@H](O)[C@H](N)[C@@H]2O)C[C@@H]2O[C@](O)(C[C@@H](O)C[C@@H](O)[C@H](O)CC[C@@H](O)C[C@@H](O)CC(=O)O[C@H]1C)C[C@H](O)[C@H]2C(=O)O [AMB, amphotericin B, reference compound]
MIC C. neoformans H99 (C. neoformans H99 [1]): 0.25 µg/mL (≈ 0.271 µM) | MIC C. gattii WM276 (C. gattii WM276): 0.25 µg/mL (≈ 0.271 µM) | MIC or MEC C. albicans 90028 (C. albicans 90028): 1 µg/mL (≈ 1.08 µM) | MIC or MEC A. fumigatus MYA3626 (A. fumigatus MYA3626): 1 µg/mL (≈ 1.08 µM) | MIC (C. neoformans isolates; C. neoformans 14116): 0.25 µg/mL (≈ 0.271 µM) | MIC (C. neoformans isolates; C. neoformans 76484): 0.25 µg/mL (≈ 0.271 µM) | MIC (C. neoformans isolates; C. neoformans DUMC 118.00 (FLC-resistant)): 0.25 µg/mL (≈ 0.271 µM) | MIC (C. neoformans isolates; C. neoformans DUMC 158.03 (FLC-resistant)): 1 µg/mL (≈ 1.08 µM) | MIC (C. neoformans isolates; C. neoformans H99): 0.25 µg/mL (≈ 0.271 µM) | MIC (C. neoformans isolates; C. neoformans MYA-4564): 0.25 µg/mL (≈ 0.271 µM) | MIC (C. neoformans isolates; C. neoformans MYA-4565): 0.125 µg/mL (≈ 0.135 µM) | MIC (C. neoformans isolates; C. neoformans MYA-4566): 0.25 µg/mL (≈ 0.271 µM) | MIC (C. neoformans isolates; C. neoformans MYA-4567): 0.25 µg/mL (≈ 0.271 µM) | MIC (C. gattii isolates; C. gattii MYA-4093): 0.25 µg/mL (≈ 0.271 µM) | MIC (C. gattii isolates; C. gattii MYA-4094): 0.25 µg/mL (≈ 0.271 µM) | MIC (C. gattii isolates; C. gattii MYA-4560): 0.063 µg/mL (≈ 0.0682 µM) | MIC (C. gattii isolates; C. gattii MYA-4561): 0.25 µg/mL (≈ 0.271 µM) | MIC (C. gattii isolates; C. gattii MYA-4562): 0.25 µg/mL (≈ 0.271 µM) | MIC (C. gattii isolates; C. gattii MYA-4563): 0.125 µg/mL (≈ 0.135 µM) | MIC (C. gattii isolates; C. gattii MYA-4877): 0.25 µg/mL (≈ 0.271 µM) | MIC (C. gattii isolates; C. gattii RSA-MW-3615 (FLC-resistant)): 0.25 µg/mL (≈ 0.271 µM) | MIC GEOMEAN ([2]; geometric mean over the 18 isolates of C. neoformans and C. gattii): 0.215 µg/mL (≈ 0.233 µM) | MIC90 [2]: 0.25 µg/mL (≈ 0.271 µM) | reduction of log10 CFU/g lung vs untreated control, delayed treatment (C. neoformans strain H99 [8]): 4.02 log10 CFU/g | MIC90 versus C. neoformans, US isolates [7]: 2 µg/mL (≈ 2.16 µM)

OC(Cn1cncn1)(Cn1cncn1)c1ccc(F)cc1F [fluconazole, Fluconazole]
reduction in brain fungal burden vs control group, monotherapy (C. neoformans strain H99 [9]): 1.04 log10 CFU/g

CC[C@H](C)C[C@H](C)CCCCCCCCC(=O)N[C@H]1C[C@@H](O)[C@@H](NCCN)NC(=O)[C@@H]2[C@@H](O)CCN2C(=O)[C@H]([C@H](O)CCN)NC(=O)[C@H]([C@H](O)[C@@H](O)c2ccc(O)cc2)NC(=O)[C@@H]2C[C@@H](O)CN2C(=O)[C@H]([C@@H](C)O)NC1=O [CAS, caspofungin, reference compound]
MIC (C. albicans 90028; Candida albicans, 90028, read-out: MIC or MEC C. albicans 90028): 0.5 µg/mL (≈ 0.457 µM) | MIC (A. fumigatus MYA3626; Aspergillus fumigatus, MYA3626, read-out: MIC or MEC A. fumigatus MYA3626): 0.25 µg/mL (≈ 0.229 µM)

OC(Cn1cncn1)(Cn1cncn1)c1ccc(F)cc1F [FLC, fluconazole]
MIC (C. neoformans H99 [1]): 2 µg/mL (≈ 6.53 µM) | MIC (C. gattii WM276; Cryptococcus gattii, WM276): 1 µg/mL (≈ 3.27 µM) | reduction in lung fungal burden vs untreated control, monotherapy (C. neoformans strain H99 [9]): 1.30 log10 CFU/g

C[C@@H](c1nc(-c2ccc(C#N)cc2)cs1)[C@](O)(Cn1cncn1)c1cc(F)ccc1F [isavuconazole]
MIC90 versus 46 strains of C. neoformans [6]: 0.06 µg/mL

Nc1ncccc1-c1cc(Cc2ccc(OCc3ccccc3)cc2)no1
MIC (C. neoformans H99 [1]): 0.031 µg/mL (≈ 0.0867 µM) | fold improved anti-C. neoformans H99 activity compared to Compound 2 (C. neoformans H99 [1]; from MIC values): 8 fold | FICI in combination with FLC (C. neoformans H99 [3]): 0.37

CC(=O)N1CCN(c2ccc(OCC3COC(Cn4ccnc4)(c4ccc(Cl)cc4Cl)O3)cc2)CC1 (centres unmarked) [ketoconazole]
MIC90 versus C. neoformans, US isolates [7]: 0.06 µg/mL (≈ 0.113 µM)
